Test results as given in patent US20040087623A1, “Pyrazole derivatives against tgf overexpression” (priority 2001, published 2004).
pIC50: −log10 of the molar value. Counter-ions that a name gives are not always drawn.

System: TGF-β signaling (PAI-1 promoter-luciferase in HepG2 cells)
Experiment: Assay 1: inhibition of TGF-β induced PAI-1 promoter luciferase reporter in HepG2 cells
Conditions: for pIC50: Homo sapiens, HepG2, read-out: IC50 value in Assay 1
Method: The assay was performed in HepG2 cells stably transfected with the PAI-1 promoter (known to be a strong TGF-β responsive promoter) linked to a luciferase (firefly) reporter gene. The compounds were selected on their ability to inhibit luciferase activity in cells exposed to TGF-β. In addition cells were transfected with a second luciferase (Renilla) gene which was not driven by a TGF-β responsive promoter and was used as a toxicity control.
(96 well-)microplates are seeded, using a multidrop apparatus, with the stably transfected cell line at a concentration of 35000 cells per well in 200 μl of serum-containing medium. These plates are placed in a cell incubator.
18 to 24 hours later (Day 2), cell-incubation procedure is launched. Cells are incubated with TGF-β and a candidate compound at concentrations in the range 50 nM to 10 μM (final concentration of DMSO 1%). The final concentration of TGF-β (rhTGFβ-1) used in the test is 1 ng/mL. […] The final volume of the test reaction is 150 μl. Each well contains only one candidate compound and its effect on the PAI-1 promoter is monitored.
Columns 11 and 12 are employed as controls. Column 11 contains 8 wells in which the cells are incubated in the presence of TGF-β, without a candidate compound. Column 11 is used to determine the ‘reference TGF-β induced firefly luciferase value’ against which values measured in the test wells (to quantify inhibitory activity) may be compared. In wells A12 to D12, cells are grown in medium without TGF-β. The firefly luciferase values obtained from these positions are representative of the ‘basal firefly luciferase activity’. In wells E12 to H12, cells are incubated in the presence of TGF-β and 500 μM CPO (Cyclopentenone, Sigma), a cell toxic compound.
12 to 18 hours later (day 3), the luciferase quantification procedure is launched. The following reactions are performed using reagents obtained from a Dual Luciferase Assay Kit (Promega). Cells are washed and lysed with the addition of 10 μl of passive lysis buffer (Promega). Following agitation (15 to 30 mins), luciferase activities of the plates are read in a dual-injector luminometer (BMG lumistar). For this purpose, 50 μl of luciferase assay reagent and 50 μl of ‘Stop & Glo’ buffer are injected sequentially to quantify the activities of both luciferases. The mean Luciferase activity value obtained in wells A11 to H11 (Column 11, TGF-β only) is considered to represent 100% and values obtained in wells A12 to D12 (cells in medium alone) give a basal level (0%). For each of the compounds tested, a concentration response curve is constructed from which an IC50 value can be determined graphically.

Structure (SMILES) | pIC50 | firefly and renilla luciferase activities (toxicity control) (500 μM CPO with TGF-β, % of those obtained in column 11 (TGF-β only))
O=C1C=CCC1 [CPO, Cyclopentenone, reference compound] |  | around 50%
Cn1cnc(COc2ccc(-c3cc(-c4c[nH]nc4-c4ccccn4)ccn3)cc2)c1 [Example 14, 2-[4-(1-Methyl-1-H-imidazol-4-ylmethoxy)-phenyl]-4-(3-pyridin-2-yl-1H-pyrazol-4-yl)-pyridine] | ≥ 5.30 | 
Cn1ccnc1COc1ccc(-c2cc(-c3c[nH]nc3-c3ccccn3)ccn2)cc1 [Example 15, 2-[4-(1-Methyl-1H-imidazol-2-ylmethoxy)-phenyl]-4-(3-pyridin-2-yl-1H-pyrazol-4-yl)pyridine] | ≥ 5.30 | 
Cn1cncc1COc1ccc(-c2cc(-c3c[nH]nc3-c3ccccn3)ccn2)cc1 [Example 16, 2-[4-(3-Methyl-3H-imidazol-4-ylmethoxy)-phenyl]-4-(3-pyridin-2-yl-1-H-pyrazol-4)-pyridine] | ≥ 5.30 | 
c1ccc(-c2n[nH]cc2-c2ccnc(-c3ccc(OCCn4ccnc4)cc3)c2)nc1 [Example 17, 2-[4-(2-{1H-Imidazol-1-yl}-ethoxy)-phenyl]-4-(3-pyridin-2-yl-1H-pyrazol-4-yl)-pyridine] | ≥ 5.30 | 
c1ccc(-c2n[nH]cc2-c2ccnc(-c3ccc(CNC4CCOCC4)cc3)c2)nc1 [Example 18] | ≥ 5.30 | 
c1ccc(-c2n[nH]cc2-c2ccnc(-c3ccc(CN4CCOCC4)cc3)c2)nc1 [Example 19, {4-[4-(3-Pyridin-2-yl-1H-pyrazol-4-yl)pyridin-2-yl]benzyl}-morpholine hydrochloride] | ≥ 5.30 | 
CN(Cc1ccc(-c2cc(-c3c[nH]nc3-c3ccccn3)ccn2)cc1)c1cccnc1 [Example 20, Pyridin-3-yl-methyl-{4-[4-(3-pyridin-2-yl-1H-pyrazol-4-yl)pyridin-2-yl]benzyl}-amine] | ≥ 5.30 | 
O=C(CN1CCCCC1)Nc1ccc(-c2cc(-c3c[nH]nc3-c3ccccn3)ccn2)cc1 [Example 21, 2-Piperidin-1-yl-N-{4-[4-(3-pyridin-2-yl-1H-pyrazol-4-yl)-pyridin-2-yl]-phenyl}-acetamide] | ≥ 5.30 | 
O=C(CN1CCCC1)Nc1ccc(-c2cc(-c3c[nH]nc3-c3ccccn3)ccn2)cc1 [Example 22, 2-Pyrrolidin-1-yl-N-{4-[4-(3-pyridin-2-yl-1H-pyrazol-4-yl)-pyridin-2-yl]-phenyl}-acetamide] | ≥ 5.30 | 
O=C(CN1CCOCC1)Nc1ccc(-c2cc(-c3c[nH]nc3-c3ccccn3)ccn2)cc1 [Example 23, 2-Morpholin-1-yl-N-{4-[4-(3-pyridin-2-yl-1H-pyrazol-4-yl)-pyridin-2-yl]phenyl}-acetamide] | ≥ 5.30 | 
CN1CCN(CC(=O)Nc2ccc(-c3cc(-c4c[nH]nc4-c4ccccn4)ccn3)cc2)CC1 [Example 24, 2-(4-Methyl-piperazin-1-yl)-N-{4-[4-(3-pyridin-2-yl-1H-pyrazol-4-yl)-pyridin-2-yl]-phenyl}-acetamide] | ≥ 5.30 | 
O=C(CCN1CCCCC1)Nc1ccc(-c2cc(-c3c[nH]nc3-c3ccccn3)ccn2)cc1 [Example 25, 3-Piperidin-1-yl-N{4-[4-(3-pyridin-2-yl-1H-pyrazol-4-yl)-pyridin-2-yl]-phenyl}-propionamide hydrochloride] | ≥ 5.30 | 
O=C(CCN1CCOCC1)Nc1ccc(-c2cc(-c3c[nH]nc3-c3ccccn3)ccn2)cc1 [Example 26] | ≥ 5.30 | 
CN1CCN(CCC(=O)Nc2ccc(-c3cc(-c4c[nH]nc4-c4ccccn4)ccn3)cc2)CC1 [Example 27, 3-(4-Methyl-piperazin-1-yl)-N{4-[4-(3-pyridin-2-yl-1H-pyrazol-4-yl)-pyridin-2yl]-phenyl}-propionamide] | ≥ 5.30 | 
O=C(NC1CCOCC1)c1ccc(-c2cc(-c3c[nH]nc3-c3ccccn3)ccn2)cc1 [Example 28, 4-[4-(3-Pyridin-2-yl-1H-pyrazol-4-yl)-pyridin-2-yl]-N-(tetrahydro-pyran-4-yl)-benzamide] | ≥ 5.30 | 
CCN1CCCC1CNC(=O)c1ccc(-c2cc(-c3c[nH]nc3-c3ccccn3)ccn2)cc1 (stereo not shown) [Example 29, N-(1-Ethyl-pyrolidin-2-ylmethyl)-4-[4-(3-pyridin-2-yl-1H-pyrazol-4-yl)-pyridin-2-yl]-benzamide] | ≥ 5.30 | 
COC1CCN(Cc2ccc(-c3cc(-c4c[nH]nc4-c4ccccn4)ccn3)cc2)CC1 [Example 34, 4-Methoxy-1-{4-[4-(3-pyridin-2-yl-1H-pyrazol-4-yl)pyridin-2-yl]benzyl}-piperidine] | ≥ 5.30 | 
CN1CCC(NCc2ccc(-c3cc(-c4c[nH]nc4-c4ccccn4)ccn3)cc2)CC1 [Example 37, (1-Methyl-piperidin-4-yl)-{4-[4-(3-pyridin-2-yl-1H-pyrazol-4-yl)pyridin-2-yl]benzyl}-amine] | ≥ 5.30 | 
CN1CCN(C(=O)c2ccc(-c3cc(-c4c[nH]nc4-c4ccccn4)ccn3)cc2)CC1 [Example 38, 1-Methyl-4-{4-[4-(3-pyridin-2-yl-1H-pyrazol-4-yl)-pyridin-2-yl]-benzoyl}-piperazine] | ≥ 5.30 | 
O=C(c1ccc(-c2cc(-c3c[nH]nc3-c3ccccn3)ccn2)cc1)N1CCOCC1 [Example 39, 4-{4-[4-(3-Pyridin-2-yl-1H-pyrazol-4-yl)-pyridin-2-yl]-benzoyl}-morpholine] | ≥ 5.30 | 
CN(C)C1CCN(C(=O)c2ccc(-c3cc(-c4c[nH]nc4-c4ccccn4)ccn3)cc2)CC1 [Example 40, (4-Dimethylamino)-1-{4-[4-(3-pyridin-2-yl-1H-pyrazol-4-yl)-pyridin-2-yl]-benzoyl}-piperidine] | ≥ 5.30 | 
CN(C)Cc1ccc(-c2cc(-c3c[nH]nc3-c3ccccn3)ccn2)cc1 [Example 43, Dimethyl-{4-[4-(3-pyridin-2-yl-1H-pyrazol-4-yl)pyridin-2-yl]-benzyl}-amine] | ≥ 5.30 | 
O=C(NCC1CCOCC1)c1ccc(-c2cc(-c3c[nH]nc3-c3ccccn3)ccn2)cc1 [Example 44, 4-[4-(3-Pyridin-2-yl-1H-pyrazol-4-yl)-pyridin-2-yl]-N-(tetrahydropyran-4-yl-methyl)-benzamide] | ≥ 5.30 | 
COCCN(C)C(=O)c1ccc(-c2cc(-c3c[nH]nc3-c3ccccn3)ccn2)cc1 [Example 45, N-(2-Methoxy-ethyl)-N-methyl-4-[4-(3-pyridin-2-yl-1H-pyrazol-4-yl)-pyridin-2-yl]-benzamide] | ≥ 5.30 | 
COCCNC(=O)c1ccc(-c2cc(-c3c[nH]nc3-c3ccccn3)ccn2)cc1 [Example 46, N-(2-Methoxy-ethyl)-4-[4-(3-pyridin-2-yl-1H-pyrazol-4-yl)-pyridin-2-yl]-benzamide] | ≥ 5.30 | 
O=C(NCC1CCCCC1)c1ccc(-c2cc(-c3c[nH]nc3-c3ccccn3)ccn2)cc1 [Example 47, N-Cyclohexylmethyl-4-[4-(3-pyridin-2-yl-1H-pyrazol-4-yl)-pyridin-2-yl]-benzamide] | ≥ 5.30 | 

Now from value to compound, other results behind:

pIC50 | Structure (SMILES) | firefly and renilla luciferase activities (toxicity control) (500 μM CPO with TGF-β, % of those obtained in column 11 (TGF-β only))
≥ 5.30 | c1ccc(-c2cc(-c3c[nH]nc3-c3ccccn3)ccn2)cc1 [Example 1, 2-Phenyl-4-(3-pyridin-2-yl-1H-pyrazol-4-yl)pyridine] | 
≥ 5.30 | FC(F)(F)c1ccc(-c2cc(-c3c[nH]nc3-c3ccccn3)ccn2)cc1 [Example 2, 2-[4(Trifluoromethyl)Phenyl]-4-(3-pyridin-2-yl-1H-pyrazol-4-yl) Pyridine] | 
≥ 5.30 | COc1ccc(-c2cc(-c3c[nH]nc3-c3ccccn3)ccn2)cc1 [Example 3, 2-(4-Methoxyphenyl)-4-(3-pyridin-2-yl-1H-pyrazol-4-yl)pyridine] | 
≥ 5.30 | Fc1ccc(-c2cc(-c3c[nH]nc3-c3ccccn3)ccn2)cc1 [Example 4, 2-(4-Fluorophenyl)-4-(3-pyridin-2-yl-1H-pyrazol-4-yl)pyridine] | 
≥ 5.30 | Clc1ccc(-c2cc(-c3c[nH]nc3-c3ccccn3)ccn2)cc1 [Example 5, 2-(4-Chlorophenyl)-4-(3-pyridin-2-yl-1H-pyrazol4-yl)pyridine] | 
≥ 5.30 | c1ccc(-c2n[nH]cc2-c2ccnc(-c3ccco3)c2)nc1 [Example 6, 2-(Furan-2-yl)-4-(3-pyridin-2-yl-1H-pyrazol-4-yl)pyridine] | 
≥ 5.30 | FC(F)(F)Oc1ccc(-c2cc(-c3c[nH]nc3-c3ccccn3)ccn2)cc1 [Example 7, 2-(4-Trifluoromethoxyphenyl)-4-(3-pyridin-2-yl-1H-pyrazol-4-yl)pyridine] | 
≥ 5.30 | Cc1ccc(-c2cc(-c3c[nH]nc3-c3ccccn3)ccn2)cc1 [Example 8, 2-(4-Methylphenyl)-4-(3-pyridin-2-yl-1H-pyrazol-4-yl)pyridine] | 
≥ 5.30 | CCc1ccc(-c2cc(-c3c[nH]nc3-c3ccccn3)ccn2)cc1 [Example 9, 2-(4-Ethylphenyl)-4-(3-pyridin-2-yl-1H-pyrazol-4-yl)pyridine] | 
≥ 5.30 | c1ccc(-c2n[nH]cc2-c2ccnc(-c3ccsc3)c2)nc1 [Example 10, 2-(Thiophen-3-yl)-4-(3-pyridin-2-yl-1H-pyrazol-4-yl)pyridine] | 
≥ 5.30 | c1ccc(-c2n[nH]cc2-c2ccnc(-c3ccc(OCCN4CCCC4)cc3)c2)nc1 [Example 11, 2-[4-(2-Pyrrolidin-1-ylethoxy)-phenyl]-4-(3-pyridin-2-yl-1H-pyrazol-4-yl)pyridine] | 
≥ 5.30 | N#CCCNCc1ccc(-c2cc(-c3c[nH]nc3-c3ccccn3)ccn2)cc1 [Example 12, 3-({4-[4-(3-Pyridin-2-yl-1H-pyrazol-4-yl)pyridin-2-yl]benzyl}amino)propanenitrile] | 
≥ 5.30 | c1ccc(-c2n[nH]cc2-c2ccnc(-c3ccc(N4CCOCC4)cc3)c2)nc1 [Example 13, 4-{4-[4-(3-Pyridin-2-yl-1H-pyrazol-4-yl)-pyridin-2-yl]-phenyl}-morpholine] | 
